According to publication PMC8906351 (Pharmaceutical research, 2021):
Structures can show the parent of a compound that is named as a salt. One block for each molecule: values may come before it.

Columns and labels:
[1] = system: [^14C]phenytoin efflux across the rat BBB; test: BEI inhibition study: pre-administration of compounds into rat Par2 region; type: in vivo; settings: for effect of pre-administration on [14C]phenytoin BEI (in words): 20 mM desipramine, probenecid, MK-571, 5 mM quinidine, 4 mM verapamil, 500 μM prazosin, 10 mM methotrexate, DHEAS, PSC833
[2] = system: MCT8; settings: concentration of 1 mM; cited from earlier work
[3] = Brain efflux index; type: in vivo, mouse
[4] = system: P-glycoprotein (P-gp); test: In situ brain perfusion in wild-type and mdr1a/1b knockout mice; type: in vivo, mouse; settings: [14C]phenytoin 2.73 μM; perfusion 2.5 mL/min for 2 min
[5] = rat, 0.01 uCi
[6] = adult rats; brain uptake index; cited from earlier work
[7] = in vivo; settings: rat, not told
[8] = Brain efflux index; settings: rat

SMILES: O=C1OC(c2ccc(O)c(S(=O)(=O)O)c2)(c2ccc(O)c(S(=O)(=O)O)c2)c2c(Br)c(Br)c(Br)c(Br)c21 [BSP, Bromosulfophthalein]
- decrease of [14C]phenytoin BEI ([1]; rat, 30 min, pre-administration of 20 mM): 82%
- inhibition of MCT8-mediated transport of the other substrates [2]: more than 50%

SMILES: CNCCCN1c2ccccc2CCc2ccccc21 [Desipramine, desipramine hydrochloride]
- BEI (%) ([1]; 0.5 h, 20000 µM): 28.4 ± 20.7%
- effect of pre-administration on [14C]phenytoin BEI (in words) ([1]; rat, 30 min): significantly decreased
- inhibition of MCT8-mediated transport of the other substrates [2]: more than 50%

SMILES: CN(C)C(=O)CCSC(SCCC(=O)O)c1cccc(/C=C/c2ccc3ccc(Cl)cc3n2)c1 (centres unmarked) [MK-571]
- effect of pre-administration on [14C]phenytoin BEI (in words) ([1]; rat, 30 min): not significantly altered

SMILES: CN(Cc1cnc2nc(N)nc(N)c2n1)c1ccc(C(=O)N[C@@H](CCC(=O)O)C(=O)O)cc1 [Methotrexate, methotrexate]
- BEI (%) ([1]; 0.5 h, 10000 µM): 67.3 ± 16.7%
- effect of pre-administration on [14C]phenytoin BEI (in words) ([1]; rat, 30 min): not significantly altered

SMILES: C/C=C/C[C@@H](C)C(=O)[C@H]1C(=O)N[C@@H](C(C)C)C(=O)N(C)CC(=O)N(C)[C@@H](CC(C)C)C(=O)N[C@@H](C(C)C)C(=O)N(C)[C@@H](CC(C)C)C(=O)N[C@@H](C)C(=O)N[C@H](C)C(=O)N(C)[C@@H](CC(C)C)C(=O)N(C)[C@@H](CC(C)C)C(=O)N(C)[C@@H](C(C)C)C(=O)N1C [PSC833]
- effect of pre-administration on [14C]phenytoin BEI (in words) ([1]; rat, 30 min): did not alter

SMILES: COc1cc2nc(N3CCN(C(=O)c4ccco4)CC3)nc(N)c2cc1OC [Prazosin, prazosin]
- effect of pre-administration on [14C]phenytoin BEI (in words) ([1]; rat, 30 min): not significantly altered
- BEI (%) ([1]; rat, 30 min, compound 0.5 mM pre-administered, control 64.1 ± 12.9): 59.4 ± 8.5%

SMILES: CCCN(CCC)S(=O)(=O)c1ccc(C(=O)O)cc1 [Probenecid, probenecid]
- BEI (%) ([1]; 0.5 h, 20000 µM): 56.5 ± 24.9%
- effect of pre-administration on [14C]phenytoin BEI (in words) ([1]; rat, 30 min): not significantly altered

SMILES: C=C[C@H]1C[N@@]2CC[C@H]1C[C@@H]2[C@@H](O)c1ccnc2ccc(OC)cc12 [Quinidine, quinidine]
- BEI (%) ([1]; 0.5 h, 5000 µM): 50.5 ± 13.1%
- effect of pre-administration on [14C]phenytoin BEI (in words) ([1]; rat, 30 min): not significantly altered

- brain elimination rate constant kel, BBB ([3]; mice, [14C]phenytoin 1.15 mM, 0.3 μL injected into S2 region): 0.0223 ± 0.0075 min⁻¹
- half-life t1/2 in the brain ([3]; mice, [14C]phenytoin injected into S2 region): 31.1 ± 10.8 min
- half-life ([3]; mouse, brain (ipsilateral hemisphere), 0.019 μCi/0.3 μL (= 1.15 mM)): 31 min
- Kin value, wild-type vs mdr1a/1b knockout mice [4]: not significantly different
- elimination rate constant kel, bbb ([5]; in vivo): 0.0413 ± 46 min⁻¹
- half-life t1/2 of brain efflux ([5]; not told): 16.8 ± 1.9 min
- half-life [7]: 17 min
- elimination clearance relative to influx clearance ([8]; 177 vs 64 μL/(min·g brain) of Cornford et al.): 2.8 fold
- elimination clearance across the BBB ([8]; from kel, bbb and Vd, brain): 177 ±20 μL/(mim•g brain)
SMILES: O=C1NC(=O)C(c2ccccc2)(c2ccccc2)N1 [phenytoin, 5,5-diphenylhydantoin]
- 100 − BEI value of [14C]phenytoin compared to control ([1]; rat, 30 min, pre-administration of 1 mM unlabeled phenytoin): significantly increased
- blood-to-brain influx clearance [6]: 64 μL/(min·g brain)
